In one experiment the test system is Raffaelea quercivora. In words: Flat plate antifungal test (PDA medium). It is filed as cell-based. Particulars: for inhibition at 1 ppm / inhibition at 10 ppm / inhibition at 100 ppm / inhibition at 0.01 ppm / inhibition at 0.1 ppm: Dryadomyces quercivorus, read-out: Inhibition rate of hyphal elongation; for antifungal effect on Raffaelea quercivora at low concentrations: concentrations of less than about 1 ppm; for inhibition at 0.01 ppm: 0.01 ppm in PDA medium. How it is done: The tree trunk injection agents was obtained by dissolving triflumizole to be each concentration of 100 ppm 10 ppm, 1 ppm, 0.1 pmm, and 0.01 ppm in solution for PDA (potato dextrose agar) medium. These tree trunk injection agents were poured into Petri dishes with inner diameter of 9 cm, and allowed to solidify to produce plate mediums with diameter of 9 cm. In this medium, the flora disk of Raffaelea quercivora was plated. This was cultured statically for 3 days to 4 days at 25° C. Then, the diameter of the flora was measured, and the inhibition rate of hyphal elongation was calculated. The inhibition rate of hyphal elongation (%) was calculated based on the formula: ((flora diameter of untreated group−flora diameter of medium containing triflumizole)/flora diameter of untreated group)×100.

Experiment [1] relates to fungi which cause Laurel wilt. The settings on record: Non-Patent Document 1; cited from earlier work.
The mark [2] stands for this setting: 1 ppm in PDA medium, 3 to 4 days at 25° C.
The mark [3] stands for this setting: 10 ppm in PDA medium, 3 to 4 days at 25° C.
Setting [4] is: 100 ppm in PDA medium, 3 to 4 days at 25° C.
Where [5] appears, read: 0.1 ppm in PDA medium, 3 to 4 days at 25° C.

The source of these data is patent US20150133509A1, “TREE TRUNK INJECTION” (NIPPON SODA CO., LTD., priority 2012, published 2015).

The structures appear in SMILES notation. Where two headings read alike, the source gives them in different places.

On to `CCCCC(O)(Cn1cncn1)c1ccc(Cl)cc1Cl` (stereo not shown) [hexaconazole], for which the inhibition at 1 ppm in the experiment with Raffaelea quercivora (setting [2]) amounted to 33%. The inhibition at 10 ppm in the experiment with Raffaelea quercivora (setting [3]) is 98%. Further, the inhibition at 100 ppm in the experiment with Raffaelea quercivora (setting [4]) came to 100%. Moreover, in the experiment on Raffaelea quercivora, the “antifungal effect on Raffaelea quercivora at low concentrations” value (“antifungal effect” below) is reported as “not exhibited any antifungal effect”.
`CC1(C)CCC(Cc2ccc(Cl)cc2)C1(O)Cn1cncn1` (stereo not shown) [metconazole]: the inhibition at 0.01 ppm in the experiment on Raffaelea quercivora (3 to 4 days at 25° C.) amounted to 35%. Also, in the experiment with Raffaelea quercivora (setting [5]), the inhibition at 0.1 ppm turned out to be 59%. Moreover, the inhibition at 1 ppm in the experiment on Raffaelea quercivora (setting [2]) was found to be 97%. The inhibition at 10 ppm in the experiment on Raffaelea quercivora (setting [3]) turned out to be 98%. In addition, the inhibition at 100 ppm in the experiment on Raffaelea quercivora (setting [4]) was determined as 100%.
With `CCCCC(C#N)(Cn1cncn1)c1ccc(Cl)cc1` (stereo not shown) [myclobutanil], the inhibition at 1 ppm in the experiment on Raffaelea quercivora (setting [2]) came out at 44%. In addition, the inhibition at 10 ppm with Raffaelea quercivora (setting [3]) turned out to be 96%. In addition, in the experiment on Raffaelea quercivora (setting [4]), the inhibition at 100 ppm was found to be 100%. For the same compound, the “antifungal effect” value in the experiment on Raffaelea quercivora was “not exhibited any antifungal effect”.
Take `CCCC1COC(Cn2cncn2)(c2ccc(Cl)cc2Cl)O1` (stereo not shown) [propiconazole]: the “effectiveness for fungi which cause Laurel wilt” value in experiment [1] is on record as “highly effective”.
Take `FC(F)C(F)(F)OCC(Cn1cncn1)c1ccc(Cl)cc1Cl` (stereo not shown) [tetraconazole]: in the experiment on Raffaelea quercivora (setting [2]), the inhibition at 1 ppm turned out to be 60%. Besides, in the experiment with Raffaelea quercivora (setting [3]), the inhibition at 10 ppm was found to be 100%. The inhibition at 100 ppm in the experiment on Raffaelea quercivora (setting [4]) turned out to be 100%. Also, in the experiment on Raffaelea quercivora, the “antifungal effect” value is on record as “not exhibited any antifungal effect”.
For the compound `CCCOC/C(=N\c1ccc(Cl)cc1C(F)(F)F)n1ccnc1` [triflumizole], in the experiment with Raffaelea quercivora (3 to 4 days at 25° C.), the inhibition at 0.01 ppm was 25%. Besides, the inhibition at 0.1 ppm in the experiment on Raffaelea quercivora (setting [5]) turned out to be 95%. Besides, in the experiment on Raffaelea quercivora (setting [2]), the inhibition at 1 ppm is 96%. Besides, in the experiment on Raffaelea quercivora (setting [3]), the inhibition at 10 ppm was found to be 100%. For the same compound, the inhibition at 100 ppm in the experiment with Raffaelea quercivora (setting [4]) was 100%.
In the case of `O=CNC(N1CCN(C(NC=O)C(Cl)(Cl)Cl)CC1)C(Cl)(Cl)Cl` (stereo not shown) [triforine], in the experiment with Raffaelea quercivora, the inhibition at 0.1 ppm amounted to 0%, the inhibition at 1 ppm came to 0%, the inhibition at 10 ppm turned out to be 26% and the inhibition at 100 ppm worked out at 100%. In the experiment on Raffaelea quercivora, the “antifungal effect” value is “not exhibited any antifungal effect”.
